# Reference: US20240066136A1, “MODIFIED PROTEINS AND PROTEIN DEGRADERS” (Cullgen (Shanghai), Inc., priority 2020, published 2024)
# Key:
# P300 [1] = biological target: T1, P300 (Homo sapiens (Human), UniProt Q09472); experiment: Immunoblot of P300 in Calu-1 cells with co-administered proteasome, neddylation or DDB1-ligand competitor; assay type: cell-based
# Source text: The heterobifunctional compound-mediated p300 and CBP degradation was dependent on the ubiquitin-proteasome system and cullin E3 ligase. […] The binding with DDB1 also played a role in the heterobifunctional compounds ability to induce degradation of P300 and CBP proteins.
# CBP = CBP (Homo sapiens (Human), UniProt Q92793); experiment: Immunoblot of CBP protein in LNCaP cells after compound treatment; assay type: cell-based
# Experimental: (§1) Experiments were performed to see if heterobifunctional compounds as described herein could degrade target proteins. Specific exemplary heterobifunctional compounds were characterized in LNCaP and Calu-1 cells. LNCaP cells that express P300/CBP proteins were treated with heterobifunctional compounds disclosed herein (D-2, D-13, or D-7) at indicated concentrations for 8 hours. Cells were collected, lysed and subject to immunoblotting using an antibody specific to P300 or CBP proteins. Vinculin was included as the loading control. DMSO treatment was used as the negative control. […] In addition, LNCaP cells were treated with 500 nM of D-2, or D-13 for indicated period of time. Subsequently, changes in P300 and CBP protein levels were measured by immunoblotting.
# P300 [2] = biological target: T1, P300; experiment: Immunoblot of P300 protein in LNCaP cells after compound treatment; assay type: cell-based
# Experimental: as §1
# Human DDB1 = Human DDB1 (Homo sapiens (Human), UniProt Q16531); experiment: Surface plasmon resonance (SPR) binding assay to immobilized His-DDB1; settings: SPR, DDB1 binding moieties with linkers and/or target protein binding moiety; read-out: Binding (Kd)
# Human DDB1, sequence (Q16531 whole entry): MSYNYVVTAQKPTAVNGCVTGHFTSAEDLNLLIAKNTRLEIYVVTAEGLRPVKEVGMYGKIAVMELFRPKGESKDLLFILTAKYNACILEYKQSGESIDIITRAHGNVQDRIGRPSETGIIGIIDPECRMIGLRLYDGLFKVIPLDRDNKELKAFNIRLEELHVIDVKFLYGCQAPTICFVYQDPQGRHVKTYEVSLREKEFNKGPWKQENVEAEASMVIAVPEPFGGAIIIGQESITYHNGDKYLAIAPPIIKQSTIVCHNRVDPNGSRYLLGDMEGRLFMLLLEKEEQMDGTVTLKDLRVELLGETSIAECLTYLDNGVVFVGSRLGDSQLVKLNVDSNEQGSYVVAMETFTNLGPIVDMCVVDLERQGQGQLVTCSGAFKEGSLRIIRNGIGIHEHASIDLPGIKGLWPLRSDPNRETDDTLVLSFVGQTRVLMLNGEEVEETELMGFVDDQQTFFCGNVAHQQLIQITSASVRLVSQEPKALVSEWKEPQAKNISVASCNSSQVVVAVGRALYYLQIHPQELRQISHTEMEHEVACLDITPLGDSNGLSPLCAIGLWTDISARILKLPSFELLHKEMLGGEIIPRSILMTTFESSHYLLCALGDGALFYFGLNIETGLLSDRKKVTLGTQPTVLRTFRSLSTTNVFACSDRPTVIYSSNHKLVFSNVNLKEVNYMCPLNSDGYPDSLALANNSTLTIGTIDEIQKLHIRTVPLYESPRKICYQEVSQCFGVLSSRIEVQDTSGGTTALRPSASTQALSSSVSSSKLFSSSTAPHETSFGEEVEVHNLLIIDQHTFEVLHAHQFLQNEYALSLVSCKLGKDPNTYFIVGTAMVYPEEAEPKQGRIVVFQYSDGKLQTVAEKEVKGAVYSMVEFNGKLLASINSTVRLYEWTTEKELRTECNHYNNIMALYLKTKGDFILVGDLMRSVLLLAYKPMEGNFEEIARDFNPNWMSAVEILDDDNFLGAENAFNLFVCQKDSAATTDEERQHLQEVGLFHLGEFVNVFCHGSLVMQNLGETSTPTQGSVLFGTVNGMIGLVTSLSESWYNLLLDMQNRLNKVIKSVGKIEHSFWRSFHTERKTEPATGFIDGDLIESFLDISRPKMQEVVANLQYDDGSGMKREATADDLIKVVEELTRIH
# In short: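 Baculovirus-expressed His-DDB1 (High5 cells) amine-coupled to 11,000–13,000 RU on a CM5 chip; compounds injected in multi-cycle format without regeneration at 25° C in HBS-EP pH 7.4 (120 s association/dissociation). Double-referenced, solvent-corrected data fit to steady-state affinity model for KD.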
# LNCaP cells = experiment: LNCaP cell viability (CellTiter-Glo); assay type: cell-based; settings: three days
# Experimental: LNCaP cells seeded in 96-well plates were treated with 10 μM GNE-781 or selected heterobifunctional compounds, following a 12-point 3-fold serial dilution. Three days after treatment, cell viability was determined using the CellTiter-Glo Kit (Promega). Cell viability was normalized to the mean values of 3 replicates of untreated cells. Dose-dependent response was analyzed following the least-squares non-linear regression method using the GraphPad Prism software.
# CDK6 = CDK6 (Homo sapiens (Human), UniProt Q00534); experiment: Immunoblot of CDK6 protein in Calu-1 cells; assay type: cell-based; settings: 1 μM, 16 hours after administration
# CDK6, sequence (Q00534 whole entry): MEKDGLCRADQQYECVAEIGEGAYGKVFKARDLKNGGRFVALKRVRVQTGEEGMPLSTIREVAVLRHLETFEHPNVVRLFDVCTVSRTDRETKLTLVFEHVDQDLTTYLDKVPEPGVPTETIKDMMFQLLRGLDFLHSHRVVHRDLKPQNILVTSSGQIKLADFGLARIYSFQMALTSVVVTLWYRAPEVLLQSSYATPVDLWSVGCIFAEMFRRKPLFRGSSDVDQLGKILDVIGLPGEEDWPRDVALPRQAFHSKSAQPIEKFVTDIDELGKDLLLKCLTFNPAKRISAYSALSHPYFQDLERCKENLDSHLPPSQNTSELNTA
# Experimental: (§2) Additional heterobifunctional compounds were designed and tested for their ability to target and degrade another two target proteins, CDK4 and CDK6. Calu-1 cells that express CDK4/6 proteins were treated with heterobifunctional compounds disclosed herein (D-44 to D-49) at indicated concentrations for 16 hours. Cells were collected, lysed and subject to immunoblotting using an antibody specific to CDK4, CDK6 or phosphorylated Rb proteins. Tubulin was included as the loading control. DMSO treatment was used as the negative control. […] In addition, Calu-1 cells were treated with 1 μM D-48 or D-49 for an indicated period of time. Subsequently, changes in CDK4 and CDK6 protein levels were measured by immunoblotting. […] These experiments highlight the ability of DDB1 binder derived heterobifunctional compounds to degrade multiple different target proteins, including but not limited to epigenetic target proteins, such as CBP and p300, and kinases, such as CDK4 and CDK6.
# CDK4 = CDK4 (Homo sapiens (Human), UniProt P11802); experiment: Immunoblot of CDK4 protein in Calu-1 cells; assay type: cell-based; settings: 1 μM, 16 hours after administration
# CDK4, sequence (P11802 whole entry): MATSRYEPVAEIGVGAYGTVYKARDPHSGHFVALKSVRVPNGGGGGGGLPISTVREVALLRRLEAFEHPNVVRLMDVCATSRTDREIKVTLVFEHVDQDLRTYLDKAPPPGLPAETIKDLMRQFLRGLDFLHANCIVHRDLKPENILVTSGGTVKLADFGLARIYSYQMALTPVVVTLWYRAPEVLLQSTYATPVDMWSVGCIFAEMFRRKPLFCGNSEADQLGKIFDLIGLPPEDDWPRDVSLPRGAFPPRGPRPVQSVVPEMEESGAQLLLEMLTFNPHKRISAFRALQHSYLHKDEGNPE
# Experimental: as §2
# MDAMB-468 = experiment: Cell viability assay (CellTiter-Glo); assay type: cell-based; settings: Homo sapiens, MDA-MB-468, 120 h; MDAMB-468, 5 days
# Experimental: (§3) A variety of cancer cell lines were treated with Palbociclib or selected heterobifunctional compounds for 5 days at indicated concentrations in FIG. 12.
# (§4) Cell Culture. LNCaP (clone FGC), Calu-1, MDA-MB-468, MDA-MB-453, NCI-H358, HCC1937, BT-549, HCT116, A375, SK-MEL-28, SK-N-SH, MIA PaCa-2, HS 578T, HCC827, MIA PaCa-2, and other cells were cultured at 37° C. with 5% CO2 in DMEM or RPMI 1640 Medium supplemented with 10% fetal bovine serum. Cells were authenticated using the short tandem repeat (STR) assays. Mycoplasma test results were negative.
# (§5) Cell viability assay. Cells were seeded at a density of 5000 cells per well in 96-well assay plates and treated with test compounds following a 11-point 3-fold serial dilution for 3-5 days. Three days later, cell viability was determined using the CellTiter-Glo Assay Kit according to the manufacturer's instructions. The dose-response curves were determined and IC50 values were calculated using the GraphPad Prism software following a nonlinear regression (least squares fit) method.
# SK-MEL-28 = experiment: Cell viability assay (CellTiter-Glo); assay type: cell-based; settings: Homo sapiens, 120 h; SK-MEL-28, 5 days
# Experimental: as §3, §4, §5
# BT-549 = experiment: Cell viability assay (CellTiter-Glo); assay type: cell-based; settings: Homo sapiens, 120 h; BT-549, 5 days
# Experimental: as §3, §4, §5
# HCT116 = experiment: Cell viability assay (CellTiter-Glo); assay type: cell-based; settings: Homo sapiens, HCT-116, 120 h; HCT116, 5 days
# Experimental: as §3, §4, §5
# Hs 578T = experiment: Cell viability assay (CellTiter-Glo); assay type: cell-based; settings: Homo sapiens, 120 h, 5 days
# Experimental: as §3, §4, §5
# SK-N-SH = experiment: Cell viability assay (CellTiter-Glo); assay type: cell-based; settings: Homo sapiens, 120 h, 5 days
# Experimental: as §3, §4, §5
# NCI-H358 = experiment: Cell viability assay (CellTiter-Glo); assay type: cell-based; settings: Homo sapiens, 120 h; NCI-H358, 5 days
# Experimental: as §3, §4, §5
# HCC1937 = experiment: Cell viability assay (CellTiter-Glo); assay type: cell-based; settings: Homo sapiens, 120 h; HCC1937, 5 days
# Experimental: as §3, §4, §5
# A375 = experiment: Cell viability assay (CellTiter-Glo); assay type: cell-based; settings: Homo sapiens, A-375, 120 h; A375, 5 days
# Experimental: as §3, §4, §5
# HCC827 = experiment: Cell viability assay (CellTiter-Glo); assay type: cell-based; settings: Homo sapiens, 120 h; HCC827, 5 days
# Experimental: as §3, §4, §5
# [3] = test system: Calu-1, MDA-MB-453, and MIA PaCa-2 cell lines; experiment: Cell viability after 5 days of treatment; assay type: cell-based; settings: variety of different cell types
# Source text: FIG. 12 and Table 8 include cell viability data after treatment with heterobifunctional compound D-128, D129, or D-130. […] The compounds may be effective in multiple cell types.
# MIA PaCa-2 = experiment: Cell viability assay (CellTiter-Glo); assay type: cell-based; settings: Homo sapiens, 120 h; MIA PaCa-2, 5 days
# Experimental: (§6) Calu-1, MDA-MB-453 or MIA PaCa-2 cancer cells were treated with Palbociclib or selected heterobifunctional compounds for 5 days at indicated concentrations following a 2-fold serial dilution.
# as §3, §4, §5
# MDAMB-453 = experiment: Cell viability assay (CellTiter-Glo); assay type: cell-based; settings: Homo sapiens, MDA-MB-453, 120 h; MDAMB-453, 5 days
# Experimental: as §6, §3, §4, §5
# Calu-1 = experiment: Cell viability assay (CellTiter-Glo); assay type: cell-based; settings: Homo sapiens, 120 h; Calu-1, 5 days
# Experimental: as §6, §3, §4, §5
# [4] = indicated concentrations, 8 hours, immunoblot
# T1 sequence (Q09472 whole entry): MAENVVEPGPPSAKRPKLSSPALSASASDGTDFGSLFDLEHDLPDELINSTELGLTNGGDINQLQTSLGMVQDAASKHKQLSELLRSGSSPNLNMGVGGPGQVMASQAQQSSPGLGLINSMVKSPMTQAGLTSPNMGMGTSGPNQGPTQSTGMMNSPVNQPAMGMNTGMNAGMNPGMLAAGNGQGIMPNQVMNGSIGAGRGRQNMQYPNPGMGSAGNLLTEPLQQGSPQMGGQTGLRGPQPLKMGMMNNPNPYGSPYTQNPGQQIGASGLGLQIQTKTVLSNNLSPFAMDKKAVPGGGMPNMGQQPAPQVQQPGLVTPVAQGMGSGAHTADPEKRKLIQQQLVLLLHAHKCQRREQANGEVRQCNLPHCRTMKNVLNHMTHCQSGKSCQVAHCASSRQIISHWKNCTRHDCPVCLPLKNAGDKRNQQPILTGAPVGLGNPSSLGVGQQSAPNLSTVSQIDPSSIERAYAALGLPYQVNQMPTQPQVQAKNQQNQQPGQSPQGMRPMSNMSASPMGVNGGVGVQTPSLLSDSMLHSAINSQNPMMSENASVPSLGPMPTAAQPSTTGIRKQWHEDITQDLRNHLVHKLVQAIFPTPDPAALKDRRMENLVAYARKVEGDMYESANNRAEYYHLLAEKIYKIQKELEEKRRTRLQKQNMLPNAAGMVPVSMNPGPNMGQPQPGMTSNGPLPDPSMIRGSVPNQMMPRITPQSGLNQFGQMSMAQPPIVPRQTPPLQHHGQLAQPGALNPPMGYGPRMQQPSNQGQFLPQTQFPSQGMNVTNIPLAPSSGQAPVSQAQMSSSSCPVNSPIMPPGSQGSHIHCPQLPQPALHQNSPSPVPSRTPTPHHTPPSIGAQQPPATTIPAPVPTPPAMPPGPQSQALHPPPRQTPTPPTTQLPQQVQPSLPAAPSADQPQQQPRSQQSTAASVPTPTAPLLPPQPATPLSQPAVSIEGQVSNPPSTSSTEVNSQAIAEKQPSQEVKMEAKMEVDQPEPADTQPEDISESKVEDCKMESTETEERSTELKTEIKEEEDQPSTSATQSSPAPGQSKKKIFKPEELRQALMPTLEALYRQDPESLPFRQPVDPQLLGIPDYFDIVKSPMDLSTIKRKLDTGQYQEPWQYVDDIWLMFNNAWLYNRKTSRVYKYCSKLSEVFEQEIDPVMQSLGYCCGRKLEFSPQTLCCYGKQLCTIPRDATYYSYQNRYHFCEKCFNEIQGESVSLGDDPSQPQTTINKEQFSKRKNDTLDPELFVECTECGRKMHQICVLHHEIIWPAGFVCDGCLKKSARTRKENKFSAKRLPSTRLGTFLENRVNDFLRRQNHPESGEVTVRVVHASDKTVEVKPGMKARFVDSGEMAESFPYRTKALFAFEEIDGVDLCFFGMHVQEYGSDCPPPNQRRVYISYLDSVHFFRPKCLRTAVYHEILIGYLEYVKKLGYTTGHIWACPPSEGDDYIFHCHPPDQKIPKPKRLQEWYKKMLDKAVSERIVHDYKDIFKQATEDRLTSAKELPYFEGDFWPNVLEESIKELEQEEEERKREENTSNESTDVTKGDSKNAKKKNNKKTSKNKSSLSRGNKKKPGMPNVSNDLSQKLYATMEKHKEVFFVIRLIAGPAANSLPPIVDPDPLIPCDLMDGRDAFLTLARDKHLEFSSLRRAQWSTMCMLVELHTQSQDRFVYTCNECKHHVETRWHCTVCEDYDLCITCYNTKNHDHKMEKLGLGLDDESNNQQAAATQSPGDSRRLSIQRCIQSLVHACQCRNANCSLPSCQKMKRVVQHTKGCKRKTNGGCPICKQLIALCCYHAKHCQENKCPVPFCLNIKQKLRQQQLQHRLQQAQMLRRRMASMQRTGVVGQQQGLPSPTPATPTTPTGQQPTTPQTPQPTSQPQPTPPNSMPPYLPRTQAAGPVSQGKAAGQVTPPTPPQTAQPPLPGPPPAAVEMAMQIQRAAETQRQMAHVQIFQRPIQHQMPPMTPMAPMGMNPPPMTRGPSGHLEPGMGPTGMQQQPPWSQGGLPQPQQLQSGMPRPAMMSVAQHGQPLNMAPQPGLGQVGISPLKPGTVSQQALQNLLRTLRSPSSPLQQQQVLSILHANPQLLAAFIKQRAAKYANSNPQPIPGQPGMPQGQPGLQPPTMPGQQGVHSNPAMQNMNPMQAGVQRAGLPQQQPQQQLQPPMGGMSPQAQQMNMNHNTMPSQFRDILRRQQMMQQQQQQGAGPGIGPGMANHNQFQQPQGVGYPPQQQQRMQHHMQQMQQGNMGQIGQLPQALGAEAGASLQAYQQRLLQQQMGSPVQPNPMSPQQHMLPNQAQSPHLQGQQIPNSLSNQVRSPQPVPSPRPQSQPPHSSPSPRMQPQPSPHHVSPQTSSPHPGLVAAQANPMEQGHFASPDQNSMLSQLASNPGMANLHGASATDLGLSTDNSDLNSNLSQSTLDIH
Structure (SMILES),Kd (Human DDB1) [nM],degradation of CDK6 (CDK6),degradation of CDK4 (CDK4),IC50 (MDAMB-468) [nM],IC50 (SK-MEL-28) [nM],IC50 (BT-549) [nM],IC50 (HCT116) [nM],IC50 (SK-N-SH) [nM],IC50 (NCI-H358) [nM],IC50 (HCC1937) [nM],IC50 (A375) [nM],IC50 (HCC827) [nM],IC50 (MIA PaCa-2) [nM],IC50 (MDAMB-453) [nM],IC50 (Calu-1) [nM],IC50 (Hs 578T) [nM],reduction of cell viability compared to palbociclib [3],also measured
"CC(=O)Nc1cc(NCCOCCOCCOCCOCCOCCNC(=O)CN2CCN(c3ccc(Nc4ncc5c(C)c(C(C)=O)c(=O)n(C6CCCC6)c5n4)nc3)CC2)ccc1C(=O)Nc1nc(C)c([N+](=O)[O-])s1 [D-48, 2-Acetamido-4-((1-(4-(6-((6-acetyl-8-cyclopentyl-5-methyl-7-oxo-7,8-dihydropyrido[2,3-d]pyrimidin-2-yl)amino)pyridin-3-yl)piperazin-1-yl)-2-oxo-6,9,12,15,18-pentaoxa-3-azaicosan-20-yl)amino)-N-(4-methyl-5-nitrothiazol-2-yl)benzamide]",< 20000,Significant degradation,Significant degradation,–,–,–,–,–,–,–,–,–,–,–,–,–,–,–
"CC(=O)Nc1cc(NCCOCCOCCOCCOCCOCCOCCNC(=O)CN2CCN(c3ccc(Nc4ncc5c(C)c(C(C)=O)c(=O)n(C6CCCC6)c5n4)nc3)CC2)ccc1C(=O)Nc1nc(C)c([N+](=O)[O-])s1 [D-49, 2-Acetamido-4-((1-(4-(6-((6-acetyl-8-cyclopentyl-5-methyl-7-oxo-7,8-dihydropyrido[2,3-d]pyrimidin-2-yl)amino)pyridin-3-yl)piperazin-1-yl)-2-oxo-6,9,12,15,18,21-hexaoxa-3-azatricosan-23-yl)amino)-N-(4-methyl-5-nitrothiazol-2-yl)benzamide]",< 20000,Significant degradation,Significant degradation,–,–,–,–,–,–,–,–,–,–,–,–,–,–,–
"CC(=O)c1c(C)c2cnc(Nc3ccc(N4CCN(CC(=O)NCCOCCOCCOCCOCCOCCNc5ccc(C(=O)Nc6ncc([N+](=O)[O-])s6)c(C)c5)CC4)cn3)nc2n(C2CCCC2)c1=O [D-129, 4-((1-(4-(6-((6-Acetyl-8-cyclopentyl-5-methyl-7-oxo-7,8-dihydropyrido[2,3-d]pyrimidin-2-yl)amino)pyridin-3-yl)piperazin-1-yl)-2-oxo-6,9,12,15,18-pentaoxa-3-azaicosan-20-yl)amino)-2-methyl-N-(5-nitrothiazol-2-yl)benzamide]",–,–,–,2000 to 10000,< 2000,< 2000,< 2000,< 2000,< 2000,< 2000,< 2000,< 2000,< 2000,< 2000,< 2000,< 2000,more effective at lower doses than palbociclib,–
"CC(=O)c1c(C)c2cnc(Nc3ccc(N4CCN(CC(=O)NCCOCCOCCOCCOCCOCCOCCNc5ccc(C(=O)Nc6ncc([N+](=O)[O-])s6)c(C)c5)CC4)cn3)nc2n(C2CCCC2)c1=O [D-130, 4-((1-(4-(6-((6-Acetyl-8-cyclopentyl-5-methyl-7-oxo-7,8-dihydropyrido[2,3-d]pyrimidin-2-yl)amino)pyridin-3-yl)piperazin-1-yl)-2-oxo-6,9,12,15,18,21-hexaoxa-3-azatricosan-23-yl)amino)-2-methyl-N-(5-nitrothiazol-2-yl)benzamide]",–,–,–,2000 to 10000,< 2000,< 2000,< 2000,< 2000,< 2000,< 2000,2000 to 10000,< 2000,< 2000,< 2000,< 2000,< 2000,more effective at lower doses than palbociclib,–

# The next lines start with results.
Kd (Human DDB1) [nM],degradation of CDK6 (CDK6),degradation of CDK4 (CDK4),IC50 (MDAMB-468) [nM],IC50 (SK-MEL-28) [nM],IC50 (BT-549) [nM],IC50 (HCT116) [nM],IC50 (SK-N-SH) [nM],IC50 (NCI-H358) [nM],IC50 (HCC1937) [nM],IC50 (A375) [nM],IC50 (HCC827) [nM],IC50 (MIA PaCa-2) [nM],IC50 (MDAMB-453) [nM],IC50 (Calu-1) [nM],Structure (SMILES),IC50 (Hs 578T) [nM],reduction of cell viability compared to palbociclib [3],also measured
20000 to 100000,–,–,–,–,–,–,–,–,–,–,–,–,–,–,"CC(=O)Nc1cc(NCCCCNC(=O)CN2CCC(n3nc(N4CCCc5cc(-c6cnn(C)c6)c(C(F)F)cc54)c4c3CCN(C(C)=O)C4)CC2)ccc1C(=O)Nc1nc(C)c([N+](=O)[O-])s1 [D-2, 2-Acetamido-4-((4-(2-(4-(5-acetyl-3-(7-(difluoromethyl)-6-(1-methyl-1H-pyrazol-4-yl)-3,4-dihydroquinolin-1 (2H)-yl)-4,5,6,7-tetrahydro-1H-pyrazolo[4,3-c]pyridin-1-yl)piperidin-1-yl)acetamido)butyl)amino)-N-(4-methyl-5-nitrothiazol-2-yl)benzamide]",–,–,"compound-induced degradation under co-administration of MG-132 or bortezomib (BTZ), or MLN4924 (P300 [1]): compromised; time at which significant degradation of CBP was detected (CBP; 500 nM, time course): 2 to 4 h; CBP protein levels (CBP; [4]): significantly decreased in a concentration-dependent manner; time at which significant degradation of P300 was detected (P300 [2]; 500 nM, time course): 2 to 4 h; P300 protein levels (P300 [2]; [4]): significantly decreased in a concentration-dependent manner; viability of LNCaP cells (LNCaP cells; 10 μM top, 12-point 3-fold serial dilution): dose-dependently suppressed viability of LNCaP cells; inhibitory effects on the growth of LNCaP cells compared to GNE-781 (LNCaP cells): more potent inhibitory effects"
–,–,–,2000 to 10000,< 2000,< 2000,< 2000,< 2000,< 2000,< 2000,< 2000,< 2000,< 2000,< 2000,< 2000,"CC(=O)c1c(C)c2cnc(Nc3ccc(N4CCN(CC(=O)NCCOCCOCCOCCOCCNc5ccc(C(=O)Nc6ncc([N+](=O)[O-])s6)c(C)c5)CC4)cn3)nc2n(C2CCCC2)c1=O [D-128, 4-((1-(4-(6-((6-Acetyl-8-cyclopentyl-5-methyl-7-oxo-7,8-dihydropyrido[2,3-d]pyrimidin-2-yl)amino)pyridin-3-yl)piperazin-1-yl)-2-oxo-6,9,12,15-tetraoxa-3-azaheptadecan-17-yl)amino)-2-methyl-N-(5-nitrothiazol-2-yl)benzamide]",< 2000,more effective at lower doses than palbociclib,–
